Results on nine compounds are retold here after patent EP0054593A1, “Myocardium protecting pyrrole derivatives with anti-arythmic and anti-platelet aggregation activity, process for their preparation and medicines containing them” (SANOFI S.A., priority 1980, dated 1982).

Experiment [1] has as its system tachycardie ventriculaire. The experiment in a line: Ventricular arrhythmia model: coronary metal coil, myocardial infarction, telemetered ECG. The conditions noted are these: 50 mg/kg P.O., dogs; for Effet sur la tachycardie ventriculaire: rythme sinusal ou amélioration: sinus rhythm restored or improvement of the ratio of abnormal to sinus complexes. The experiment is classed as in vivo, chiens. The text has this: Le pouvoir antiarythmique de ces molécules a été apprécié sur un modèle animal d'arythmie ventriculaire.
Des chiens bâtards sont anesthésiés puis soumis à la mise en place, par cathétérisme rétrograde, d'une spire métallique dans le lit coronarien. Dans le même temps, un micro-émetteur modulateur de fréquence est fixé au dos de l'animal et relié à deux électrodes précordiales.
L'animal remis dans son box accuse alors une thrombose progressive de l'artère interventriculaire antérieure. Ainsi, se constitue un infarctus myocardique localisé et transmural, générateur d'une activité électrique anormale, mais répétitive : tachycardie ventriculaire.
Dans cet état, les drogues sont administrées per os (P.O.) et le système télémétré permet de suivre en temps réel l'évolution de la disrythmie.
Un comptage des complexes systoliques sinusaux et pathologies est assuré en permanence par des procédés électroniques.
Ainsi, peut-on quantifier la qualité et la durée d'action du produit.
L'activité des produits essayés sur la tachycardie ventriculaire est exprimée soit par le rétablissement du rythme sinusal, soit par une amélioration notable du rapport : • nombre de complexes anormaux
nombre de complexes sinusaux

The test system of experiment [2] is agrégation plaquettaire induite par le collagène. Nature of the experiment: In vitro collagen-induced platelet aggregation in platelet-rich plasma (Born turbidimetric technique). The experiment is classed as cell-based, humain. The settings on record: for IC50: 10 min; for inhibition at 100 µM: concentration 100 µM, inhibition of maximal aggregation amplitude versus control, read-out: % d'inhibition. The text has this:
(§1) Les études in vitro et ex vivo de l'activité antiagrégante ont été réalisées selon la technique turbidiurétrique de Born.
Les études in vitro ont été réalisées sur du plasma riche en plaquettes (PRP) préparé à partir de sang veineux humain.
Les diverses solutions des produits à tester ont été préparées extemporanément. Les CM 7753, 7611, 7640, 7921, 7954, - 40018, 40020 ont été dissous à une concentration de 2 x 10^-2 M dans l'acétone.
Des solutions aqueuses à 2 x 10 ^-3 M ont été préparées pour les CM 40169, 40178, 2 µl des solutions acétoniques des produits ou 40 µl des solutions aqueuses sont incubés pendant 10 min à 37°C avec, respectivement, 388 et 350 µl de PRP. Après cette période d'incubation, 10 µl de la solution de collagène à 40 µg/ml sont additionnés. Pour les contrôles, 2 µl d'acétone ou 40 µl d'eau distillée sont utilisés.
(§2) L'agrégation plaquettaire a été quantifiée par la détermination graphique de l'amplitude maximale d'agrégation (AM).
(§3) Les résultats sont exprimés en % d'inhibition de ce paramètre calculé par rapport au contrôle (100 % d'agrégation). Résultats

Experiment [3] has the same test system. The experiment in a line: Ex vivo collagen-induced platelet aggregation after oral dosing (Born technique). The settings on record: Papio, 120 h, four baboons, 50 mg/kg/j oral, after 5 days of treatment, read-out: % d'inhibition. The experiment is classed as in vivo, babouin. Here is the method: as §1
(§4) Les études ex vivo chez le babouin ont porté uniquement sur l'activité antiagrégante du CM 7753. Dans ce cas, le CM 7753 est administré par voie buccale à raison de 50 mg/kg/j pendant une période de 5 jours.
(§5) Les prélèvements sanguins pour l'analyse de l'agrégation plaquettaire ont été effectués avant l'administration du produit, 2 h après l'administration de 50 mg/kg au jour 1 et 2 h après la dernière administration au jour 5.
as §2, §3

In a further experiment the test system is ADP. The experiment in a line: Ex vivo ADP-induced platelet aggregation after oral dosing (Born technique). The conditions noted are these: baboons, 50 mg/kg/j oral. The experiment is classed as in vivo, babouin. Here is the method: as §1, §4, §5, §2, §3

Read-outs that look alike come from different tables or passages of the source.

`CC(C)N(CCC(C(N)=O)(c1ccccc1)n1cccc1)C(C)C` (stereo not drawn) [CM 7611, Phényl-2 (pyrrolyl-l)-2 diisopropylamino-4 butyramide]: in experiment [1], the “Effet sur la tachycardie ventriculaire: rythme sinusal ou amélioration” value is listed as 70-90%. The compound further showed an IC50 in experiment [2] of around 30 µM.

With `Cc1ccc(C)n1C(CCN(C(C)C)C(C)C)(C(N)=O)c1ccccc1` (stereo not drawn) [CM 7640], in experiment [1], the “Effet sur la tachycardie ventriculaire: duration of effect” value is recorded as “Rythme sinusal ou amélioration à 90 % durant 90 min” and the “Effet sur la tachycardie ventriculaire: rythme sinusal ou amélioration” value is recorded as “Rythme sinusal ou amélioration à 90 % durant 90 min”. The IC50 in experiment [2] was around 30 µM.

`Cc1ccc(C)n1C(CCN(C(C)C)C(C)C)C(N)=O` (stereo not drawn) [CM 7753, (Diméthyl-2,5 pyrrolyl-1)-2 diisopropylamino-4 butyramide]: in experiment [1], the “Effet sur la tachycardie ventriculaire: rythme sinusal ou amélioration” value is given as 90%. Moreover, the IC50 in experiment [2] (human PRP, 10 min incubation at 37°C, collagen, approximate value, read-out: concentration qui inhibe à 50 % l'agrégation plaquettaire) is around 100 µM. Also, the inhibition at 50 mg/kg in experiment [3] turned out to be 100%. Besides, the “activité antiagrégante vis-à-vis de l'ADP” value with ADP was “activité antiagrégante de moindre importance”.

`CC(C)N(CCC(C(N)=O)n1cccc1)C(C)C` (stereo not drawn) [CM 7921]: the inhibition at 100 µM in experiment [2] (human PRP, collagen) lay within 20 to 30%.

On to `CC(C)N(CCC(C(N)=O)(c1ccccn1)n1cccc1)C(C)C` (stereo not drawn) [CM 7954, (Pyridyl-2)-2 (pyrrolyl-l)-2 diisopropylamino-4 butyramide], for which the IC50 in experiment [2] (read-out: concentration qui inhibe à 50 % l'agrégation plaquettaire) was around 100 µM.

As to `Cc1ccc(C)n1C(CCN1CCN2CCCC2C1)C(N)=O` (stereo not drawn) [CM 40018, (Diméthyl-2,5 pyrrolyl)-1 (diaza-1,4 bicyclo[4.3.0]-nonyl-4)-4 butyramide], the inhibition at 100 µM in experiment [2] (human PRP, collagen) lay in the range of 20 to 30%.

Take `CCc1ccc(CC)n1C(CCN(C(C)C)C(C)C)C(N)=O` (stereo not drawn) [CM 40020]: the inhibition at 100 µM in experiment [2] (human PRP, collagen) was in the range of 20 to 30%.

`Cc1ccc(C)n1C(CCN(C(C)C)C1CCCCC1)C(N)=O` (stereo not drawn) [CM 40169]: the inhibition at 100 µM in experiment [2] (human PRP, collagen) was in the range of 20 to 30%.

On to `CCC(C)N(CCC(C(N)=O)n1c(C)ccc1C)C(C)CC` (stereo not drawn) [CM 40178], for which the inhibition at 100 µM in experiment [2] (human PRP, collagen) fell in the range of 20 to 30%.

A word on the inhibition: it is the drop in the measured response relative to a control, in per cent.
